Laboratory results published in ChEMBL document CHEMBL1128550, “Nonclassical 2,4-diamino-6-(aminomethyl)-5,6,7,8-tetrahydroquinazoline antifolates: synthesis and biological activities” (J Med Chem, 1995).

Tests used:
[1] = biological target: T1, Dihydrofolate reductase (Pneumocystis carinii, UniProt P16184); assay: Inhibitory activity against purified dihydrofolate reductase from Pneumocystis carinii.
T1 sequence (P16184 whole entry): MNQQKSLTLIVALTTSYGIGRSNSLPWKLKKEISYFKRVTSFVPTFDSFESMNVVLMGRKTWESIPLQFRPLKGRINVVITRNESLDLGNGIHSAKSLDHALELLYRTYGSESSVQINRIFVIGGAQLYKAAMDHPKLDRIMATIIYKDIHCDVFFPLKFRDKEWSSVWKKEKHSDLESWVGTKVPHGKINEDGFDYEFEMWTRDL

[2] = biological target: T2, Dihydrofolate reductase (Rattus norvegicus, UniProt Q920D2); assay: Inhibitory activity against purified dihydrofolate reductase from rat
T2 sequence (Q920D2 whole entry): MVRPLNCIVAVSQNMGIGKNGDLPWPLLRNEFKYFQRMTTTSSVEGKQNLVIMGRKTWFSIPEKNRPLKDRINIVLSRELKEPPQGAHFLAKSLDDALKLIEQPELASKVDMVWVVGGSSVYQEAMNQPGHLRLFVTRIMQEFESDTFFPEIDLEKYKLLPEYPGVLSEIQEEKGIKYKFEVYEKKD

[3] = biological target: T3, Bifunctional dihydrofolate reductase-thymidylate synthase (Toxoplasma gondii, UniProt Q07422); assay: Inhibitory activity against purified Dihydrofolate reductase from Toxoplasma gondii.
T3 sequence (Q07422 whole entry): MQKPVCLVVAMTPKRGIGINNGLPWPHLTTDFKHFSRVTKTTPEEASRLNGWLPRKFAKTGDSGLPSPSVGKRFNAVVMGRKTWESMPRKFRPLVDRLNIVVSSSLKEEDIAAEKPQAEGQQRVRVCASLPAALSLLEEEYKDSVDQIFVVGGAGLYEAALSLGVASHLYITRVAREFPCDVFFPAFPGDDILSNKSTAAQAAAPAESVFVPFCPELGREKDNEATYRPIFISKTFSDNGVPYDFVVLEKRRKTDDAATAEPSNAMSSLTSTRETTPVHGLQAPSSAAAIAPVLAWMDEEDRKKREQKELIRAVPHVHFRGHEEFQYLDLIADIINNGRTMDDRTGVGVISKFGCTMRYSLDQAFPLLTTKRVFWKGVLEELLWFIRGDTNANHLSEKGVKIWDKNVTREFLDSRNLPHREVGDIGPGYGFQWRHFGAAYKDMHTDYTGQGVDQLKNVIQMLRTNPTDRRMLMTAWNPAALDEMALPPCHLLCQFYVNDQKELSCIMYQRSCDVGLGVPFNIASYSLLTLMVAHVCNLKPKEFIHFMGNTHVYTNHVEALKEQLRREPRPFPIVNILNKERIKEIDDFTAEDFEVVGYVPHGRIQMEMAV

[4] = system: K562; assay: In vitro activity of compound against leukemia K-562 cell line; assay type: functional, Homo sapiens
[5] = biological target: T3, Bifunctional dihydrofolate reductase-thymidylate synthase; assay: Inhibitory activity against purified DHFR (Dihydrofolate reductase) from Toxoplasma gondii.
[6] = biological target: T1, Dihydrofolate reductase
Description: Inhibitory activity against purified DHFR (Dihydrofolate reductase) from Pneumocystis carinii.

[7] = biological target: T2, Dihydrofolate reductase
Description: Inhibitory activity against purified DHFR (Dihydrofolate reductase) from rat

[8] = biological target: T3, Bifunctional dihydrofolate reductase-thymidylate synthase; assay: Inhibitory activity against purified DHFR (Dihydrofolate reductase) from Toxoplasma gondii
[9] = system: NCI-H460; assay: In vitro activity of compound against non-small cell lung cancer NCI-H460; assay type: functional; details: Homo sapiens

| SMILES | IC50 [1] | IC50 [2] | IC50 [6] | IC50 [7] | IC50 [3] | IC50 [5] | further results |
| --- | --- | --- | --- | --- | --- | --- | --- |
| CN(CC1CCc2nc(N)nc(N)c2C1)c1cccc2ccccc12 (stereo not given) | 100 nM | 47 nM | – | – | 23 nM | – | GI50 [4]: 40 nM |
| Nc1nc(N)c2c(n1)CCC(CN1CCc3ccccc31)C2 (stereo not given) | – | – | 210 nM | 160 nM | – | 27 nM | – |
| CN(CC1CCc2nc(N)nc(N)c2C1)c1ccc(Cl)c(Cl)c1 (stereo not given) | 246 nM | 34 nM | – | – | 21 nM | – | – |
| CN(CC1CCc2nc(N)nc(N)c2C1)c1ccc(Cl)cc1 (stereo not given) | 171 nM | 67 nM | – | – | 22 nM | – | – |
| COc1cc(N(C)CC2CCc3nc(N)nc(N)c3C2)cc(OC)c1OC (stereo not given) | 95 nM | 38 nM | – | – | 7 nM | – | – |
| C#CCN(CC1CCc2nc(N)nc(N)c2C1)c1cc(OC)c(OC)c(OC)c1 (stereo not given) | 119 nM | 74 nM | – | – | 12 nM | – | – |
| COc1cc(CN(C)CC2CCc3nc(N)nc(N)c3C2)cc(OC)c1OC (stereo not given) | – | – | 3100 nM | 1630 nM | – | 330 nM | – |
| COc1cc(CNCC2CCc3nc(N)nc(N)c3C2)cc(OC)c1OC (stereo not given) | 18500 nM | 12700 nM | – | – | – | – | – |

Second part, led by results:

| IC50 [1] | IC50 [2] | IC50 [6] | IC50 [7] | SMILES | IC50 [3] | IC50 [5] | further results |
| --- | --- | --- | --- | --- | --- | --- | --- |
| 6800 nM | 150 nM | – | – | Nc1nc(N)c2c(n1)CCC(CNc1ccc(Cl)c(Cl)c1)C2 (stereo not given) | 110 nM | – | – |
| 114 nM | 71 nM | – | – | CCN(CC1CCc2nc(N)nc(N)c2C1)c1cc(OC)ccc1OC (stereo not given) | 17 nM | – | – |
| – | – | – | 290 nM | COc1cc(NCC2CCc3nc(N)nc(N)c3C2)cc(OC)c1OC (stereo not given) | – | 54 nM | – |
| – | – | 940 nM | 128 nM | Nc1nc(N)c2c(n1)CCC(CNc1ccc(Cl)cc1)C2 (stereo not given) | – | 78 nM | – |
| – | – | 502 nM | 109 nM | Nc1nc(N)c2c(n1)CCC(CNc1c(Cl)cccc1Cl)C2 (stereo not given) | – | 9.9 nM | – |
| 319 nM | 116 nM | – | – | CCOc1ccc(OCC)c(N(C)CC2CCc3nc(N)nc(N)c3C2)c1 (stereo not given) | 17 nM | – | – |
| 330 nM | 227 nM | – | – | Nc1nc(N)c2c(n1)CCC(CNc1cccc(Br)c1)C2 (stereo not given) | 30 nM | – | – |
| – | – | 410 nM | 240 nM | Nc1nc(N)c2c(n1)CCC(CNc1cc(Cl)ccc1Cl)C2 (stereo not given) | – | 97 nM | – |
| – | – | 1570 nM | 1470 nM | CCOc1ccc(OCC)c(NCC2CCc3nc(N)nc(N)c3C2)c1 (stereo not given) | – | 140 nM | – |
| 300 nM | 260 nM | – | – | COc1ccc(OC)c(N(C)CC2CCc3nc(N)nc(N)c3C2)c1 (stereo not given) | 15 nM | – | – |
| 1670 nM | 560 nM | – | – | COc1ccc(OC)c(NCC2CCc3nc(N)nc(N)c3C2)c1 (stereo not given) | 181 nM | – | – |
| – | – | 517 nM | 139 nM | Nc1nc(N)c2c(n1)CCC(CNc1cccc3ccccc13)C2 (stereo not given) | – | – | IC50 [8]: 36 nM; GI50 [9]: 50 nM |
